# Data published in US11155530B2, “Urea-oxaziridines” (The Regents of the University of California, priority 2018, dated 2021).
# Assay: Stability of redox conjugation product-sulfimide
# Assay type: physicochemical
# Settings: salt form formed from S3 under strong acidic condition (1 N HCl); co-solvent d-MeOD/D2O=1:1; monitored by NMR after 1 h and 18 h
# Description: The stability of sulfimides were tested by treatment of sulfimides S2 with 5 mM TCEP or treatment of sulfimides S3 with 1 N HCl, 1 N NaOH or 80° C. in co-solvent (d-MeOD/D2O=1:1). The reactions were monitored by NMR after 1 h and 18 h and the reaction conversions were calculated based on NMR data. Sulfimide S3 can be protonated under strong acidic condition to its salt form S4, which is stable in aqueous solution.
smiles,measurement,value
CCNC(=O)N[S+](C)c1ccccc1.[Cl-] (stereo not shown) [Compound S4],stability in aqueous solution,stable
